Laboratory results reported in patent US20140336109A1, “MODULATION OF GHRELIN LEVELS AND GHRELIN/UNACYLATED GHRELIN RATIO USING UNACYLATED GHRELIN” (Alize Pharma SAS, priority 2011, published 2014).
Where no end group is shown, it is not given here.

Columns and labels:
[1] = U.S. Pat. Nos. 8,222,217 and 8,318,664; cited from earlier work
T2DM subjects = experiment: Side effects and laboratory safety parameters during UAG infusion; type: in vivo, human; settings: during infusions with UAG 3 and 10 μg/kg/hr, 15 hours
Procedure: A continuous overnight (15 hours) infusion of two doses of UAG (3 μg UAG/kg/hr and 10 μg UAG/kg/hr) versus placebo in a cross-over model on the AG concentrations was performed in eight overweight subjects with type 2 diabetes. FIG. 1 depicts a schematic representation of the study protocol. Glucose and insulin responses to a standard breakfast meal (SBM) in the subjects and reasonable metabolic control were assessed.
Study design—Single-center, investigator initiated, double blind and placebo controlled randomized study. During the first visit medical history, medication use and vital signs of subjects were checked. Blood samples were also taken for chemistry and hematology analysis. […]
Standard breakfast meal (SBM) consisted of: • 3 slices wheat bread; p1 3 portions of margarine; • 2 slices of cheese (48% fat); • 1 portion of jam; • 1 cup of whole milk; and • 1 boiled egg; for a total of 714 kcal (17% proteins; 46% fat; and 37% carbohydrates). […] At each of the 3 visits, the following safety parameters were assessed: hemoglobin, hematocrit, platelet count, WBC count, RBC count, and differential and were determined using Sysmex XE 2100, Firma Sysmex, Ecustraat 11, 4879 NP Etten-Leur. […] Serum glucose levels (using the in-house glucokinase assay) were also assessed every 30 minutes and starting before, and continuing for 4 hours after, the SBM. […]

Sprague-Dawley rats = experiment: AG-induced food intake in rats; type: in vivo; settings: rat; i.p. 42 μg/kg + AG 13 μg/kg; 30 min, 1 h, 2 h
Procedure: With respect to the experimental data presented in FIG. 8, Sprague-Dawley rats of 7 weeks of age, weighing between 275 g and 300 g, were fed a pellet diet ad libitum and were singly housed in plastic cage. The experiment was performed at 2.5 h after the onset of the light cycle in freely fed rats. The rates were i.p. injected simultaneously with vehicle plus vehicle, vehicle+AG (13 μg/kg) or cyclised UAG (6-13) (SEQ ID NO: 25) (42 μg/kg)+AG (13 μg/kg). Immediately after the completion of the i.p. injection in rats, the night-ad-libitum food was removed and replaced by 2 pellets for each animal, previously weighed, placed into the top of the cage. Food intake was calculated as the difference between the food weight before and after the feeding period at each time interval (30 min, 1 h, and 2 h). Cumulative food intake was calculated by summating the values of the different time periods.

EHQRVQ [UAG (8-13)]
activity on glucose, insulin and lipid metabolisms relative to UAG full length [1]: retain the activity of UAG full length

Glu-His-Gln-Arg (EHQR; listed as Homo sapiens) [UAG (8-11)]
activity on glucose, insulin and lipid metabolisms relative to UAG full length [1]: retain the activity of UAG full length

CC(C)C[C@H](NC(=O)[C@H](CCCCN)NC(=O)[C@H](C)NC(=O)[C@@H]1CCCN1C(=O)[C@@H]1CCCN1C(=O)[C@H](CCCCN)NC(=O)[C@H](CCCCN)NC(=O)[C@H](CO)NC(=O)[C@H](CCC(=O)O)NC(=O)[C@H](CCCCN)NC(=O)[C@H](CCCNC(=N)N)NC(=O)[C@H](CCC(N)=O)NC(=O)[C@H](CCC(N)=O)NC(=O)[C@@H](NC(=O)[C@H](CCCNC(=N)N)NC(=O)[C@H](CCC(N)=O)NC(=O)[C@H](Cc1cnc[nH]1)NC(=O)[C@H](CCC(=O)O)NC(=O)[C@@H]1CCCN1C(=O)[C@H](CO)NC(=O)[C@H](CC(C)C)NC(=O)[C@H](Cc1ccccc1)NC(=O)[C@H](CO)NC(=O)[C@H](CO)NC(=O)CN)C(C)C)C(=O)N[C@@H](CCC(N)=O)C(=O)N1CCC[C@H]1C(=O)N[C@@H](CCCNC(=N)N)C(=O)O [UAG]
laboratory evaluations (chemistry or parameters) (T2DM subjects): no significant changes | side effects reported by subjects (T2DM subjects): did not report more side effects than placebo

SPEHQRVQ [UAG (6-13)]
activity on glucose, insulin and lipid metabolisms relative to UAG full length [1]: retain the activity of UAG full length

Glu-His-Gln-Arg-Val (EHQRV; listed as Homo sapiens) [UAG (8-12)]
activity on glucose, insulin and lipid metabolisms relative to UAG full length [1]: retain the activity of UAG full length

Ser-Pro-Glu-His-Gln-Arg-Val-Gln (cycl) (SPEHQRVQ; also: cyclic, linkage type not given here; listed as Homo sapiens) [cyclic UAG (6-13)]
orexigenic effects (food intake) induced by AG (Sprague-Dawley rats): able to counteract the orexigenic effects induced by AG

His-Gln-Arg (HQR; listed as Homo sapiens) [UAG (9-11)]
activity on glucose, insulin and lipid metabolisms relative to UAG full length [1]: retain the activity of UAG full length

His-Gln-Arg-Val (HQRV; listed as Homo sapiens) [UAG (9-12)]
activity on glucose, insulin and lipid metabolisms relative to UAG full length [1]: retain the activity of UAG full length
